Reference: US8263601B2, “Deuterium substituted xanthine derivatives” (CoNCERT Pharmaceuticals, Inc., priority 2009, dated 2012)
Like-named read-outs stand apart in the source and are kept apart here.

Assays:
[1] = Stability of compounds in rat whole blood (Example 35); format: in vitro ADME; details: 5 μM, 37° C., approximately 2 hours, FIG. 3 columns A and B
Experimental: This study was performed to evaluate the stability of the title compounds in rat whole blood. Because the ketone (or keto-compound; either pentoxifylline or 409) and its corresponding M-1 alcohol metabolite interconvert, levels of these components were measured after either the keto-compound was added to the blood or the M-1 was added. In other words, in some tests the keto-compound was the starting test compound and in other tests an M-1 metabolite was the starting test compound.
Fresh rat whole blood was obtained from ViviSource Laboratories, Waltham, Mass. Stock solutions (7.5 millimolar (mM)) of test compounds were prepared in dimethyl sulfoxide (DMSO). The 7.5 mM stock solutions were diluted to 500 micromolar (μM) in acetonitrile (ACN). To 990 microliters (μL) of blood pre-warmed to 37° C. for 7 minutes was added 10 μl, of 500 μM test compound to a final concentration of 5 μM. The test compounds were pentoxifylline, (S)-M1 metabolite of pentoxifylline, (R)-M1 metabolite of pentoxifylline, Compound 409, Compound 435(S), and Compound 435(R). The latter two test compounds are deuterated (S)-M1 and (R)-M1 metabolites, respectively, of Compound 409. The reaction mixture was incubated at 37° C. Aliquots (50 μL) were removed at 0 min, 5 min, 15 min, 30 min, 1 hour and 2 hours following the addition of test compound and added to 96-well plates containing 150 μL of ice cold acetonitrile with an internal standard to stop the reaction. The plates were stored at −20° C. for 20 minutes after which 100 μL of 50% acetonitrile/water was added to the wells of the plate prior to centrifugation to pellet precipitated proteins. A 200-μL aliquot of each supernatant was transferred to another 96-well plate and analyzed by LC-MS/MS using an Applied Bio-systems API 4000 mass spectrometer for amounts of the administered compound and its specific metabolite listed in Table 11 below.
The results of this study are depicted in FIGS. 2 and 3.

[2] = Compound stability in human liver microsomes (Example 36); format: in vitro ADME; details: human liver microsomes 2.0 mg/mL, 5 μM, NADPH, 30 minutes, FIG. 5 columns A and B
Experimental: Example 36 is similar to Example 35 in design, except that human liver microsomes were used instead of rat whole blood to study the metabolism of the compounds.
Human liver microsomes (20 mg/mL) were obtained from Xenotech, LLC (Lenexa, Kans.). β-nicotinamide adenine dinucleotide phosphate, reduced form (NADPH), magnesium chloride (MgCl2), and dimethyl sulfoxide (DMSO) were purchased from Sigma-Aldrich.
Stock solutions containing 7.5 mM of test compounds (pentoxifylline, (S)-M1 metabolite, (R)-M1 metabolite, Compound 409, Compound 435(S), and Compound 435(R)) were prepared in DMSO. The 7.5-mM stock solutions were diluted to 250 μM in acetonitrile (ACN). The human liver microsomes were diluted to 2.5 mg/mL in 0.1 M potassium phosphate buffer, pH 7.4, containing 3 mM MgCl2. The diluted microsomes were added to wells of a 96-well deep-well polypropylene plate in triplicate. 10 μL of the 250 μM test compound was added to the microsomes and the mixture was pre-warmed to 37° C. for 10 minutes. Reactions were initiated by addition of pre-warmed NADPH solution. The final reaction volume was 0.5 mL and contained 2.0 mg/mL human liver microsomes, 5 μM test compound, and 2 mM NADPH in 0.1M potassium phosphate buffer, pH 7.4, and 3 mM MgCl2. The reaction mixtures were incubated at 37° C., and 50-μL aliquots were removed at 0, 5, 10, 20, and 30 minutes and added to shallow-well 96-well plates which contained 50 μL of ice-cold acetonitrile with internal standard to stop the reactions. The plates were stored at 4° C. for 20 minutes after which 100 μL of water was added to the wells of the plate before centrifugation to pellet precipitated proteins. Supernatants were transferred to another 96-well plate and analyzed for the amount of the administered compound and its specific metabolite (listed in Table 11 above) by LC-MS/MS using an Applied Bio-systems API 4000 mass spectrometer.
The results of this study are depicted in FIGS. 4 and 5. […]

[3] = in vivo; set-up: species or system male beagle dogs; details: male, beagle, dog, po
Experimental: Metabolism of the title compounds were studied following oral administration to male beagle dogs. Blood samples were removed from dosed dogs at various time points and plasma isolated therefrom. The plasma samples were used for the determination of plasma drug levels by LC-MS/MS (liquid chromatography with tandem mass spectrometry) for estimating pharmacokinetic parameters.
Compound 409 and pentoxifylline were dissolved separately in saline to a concentration of 4 mg/mL. A 1:1 (v/v) mixture of the two solutions was prepared to yield a solution having a final concentration of 2 mg/mL of both Compound 409 and pentoxifylline.
Two male beagle dogs were fasted overnight and then orally dosed via gavage with 2.5 mg/kg of Compound 409 and pentoxifylline using the mixture described above. Blood samples (1.5-2 mL) were collected via the femoral vein at 0 min (pre-dose), 15 min, 30 min, 45 min, 1 hr, 1.5 hr, 2 hr, 3 hr, 4 hr, 6 hr, 8 hr, 10 hr, 12 hr, 16 hr and 24 hr post-dose. Blood was stored on ice prior to centrifugation to obtain plasma samples. Centrifugation took place within 1 hour of blood collection to harvest plasma (maximum volume). The plasma was decanted immediately and frozen/stored at −70° C. until analysis.

[4] = set-up: species or system beagle dogs; details: dog, in vivo, po
Experimental: Example 34a was repeated with additional monitoring of the pentoxifylline and Compound 409 metabolites. In this experiment Compound 409 and pentoxifylline were dissolved separately in saline to a concentration of 4.4 and 4 mg/mL respectively. A 1:1 (v/v) mixture of the two solutions was prepared to yield a solution having a final concentration of 2.2 mg/mL of Compound 409 and 2 mg/mL pentoxifylline. Post-dosing data analysis included adjustments to account for the 10% difference in dosing concentration between compound 409 and pentoxifylline.
Four beagle dogs (2-3 years of age, and weighed 5 to 8 kg) were fasted overnight and then orally dosed via gavage with 2.75 mg/kg Compound 409 and 2.5 mg/kg pentoxifylline using the mixture described above. Blood samples (approximately 1 mL) were collected via femoral vein at 0 min (pre-dose), 5 min, 15 min, 30 min, 45 min, 1 hr, 1.5 hr, 2 hr, 3 hr, 4 hr, and 6 hr post-dose. Blood was stored on ice prior to centrifugation to obtain plasma samples. Centrifugation took place within 15 minutes of blood collection to harvest plasma (maximum volume). The plasma was decanted immediately and frozen/stored at −20° C. until analysis.
Plasma samples were analyzed by LC-MS/MS for the presence of the administered compound and its corresponding M1 metabolite:
The results from one of the four dogs (Dog H, FIG. 1b) were inconsistent with that of the other three. […] It was concluded that this dog was most likely improperly gavaged and that the compounds were probably administered through the trachea, rather than into the GI tract as would have been desired. Accordingly, the data from this dog was excluded from the analyses.

[5] = set-up: species or system male beagle dogs; details: male, beagle, dog, in vivo, po
Experimental: This study was similar to those described in Examples 34a and 34b, except that Compound 413 was evaluated. Four male beagle dogs were orally dosed by gavage with a mixture containing 2 mg/mL each of pentoxifylline and Compound 413 in saline. Blood samples were taken as in Example 34b.

[2H]c1nc2c(c(=O)n(CCCC([2H])([2H])C(=O)C([2H])([2H])[2H])c(=O)n2C)n1C([2H])([2H])[2H] [Compound 409, 8-d1-3-methyl-7-(methyl-d3)-1-(6-d3-4-d2-5-oxohexyl)-1H-purine-2,6(3H,7H)-dione]
Amount of (S)-M1 type metabolite (Compound 419(S)) formed from keto-compound, compared to (S)-M1 formed from pentoxifylline [1]: similar
Amount of (S)-M1 type metabolite (Compound 419(S)) formed from keto-compound, compared to (S)-M1 formed from pentoxifylline [2]: similar
% Difference in Ave. AUC (deuterated vs nondeuterated species) [3]: +80%
% Difference in Ave. Cmax (deuterated vs nondeuterated species) [3]: +57%
AUC ([3]; 2.5 mg/kg): 811 ng·h/mL
Cmax ([3]; 2.5 mg/kg): 1230 ng/mL
% Difference in Ave. AUC (deuterated vs nondeuterated species) ([4]; beagle): +97%
% Difference in Ave. Cmax (deuterated vs nondeuterated species) ([4]; beagle): +80%
Clearance from the plasma compared to pentoxifylline [4]: more slowly cleared

[2H]c1nc2c(c(=O)n(CCCC([2H])([2H])C(=O)C([2H])([2H])[2H])c(=O)n2C([2H])([2H])[2H])n1C([2H])([2H])[2H] [Compound 413, 8-d1-3,7-Di(methyl-d3)-1-(4,4,6,6,6-d5-5-oxohexyl)-1H-purine-2,6(3H,7H)-dione]
% Difference in Ave. AUC (deuterated vs nondeuterated species) [5]: +74%
% Difference in Ave. Cmax (deuterated vs nondeuterated species) [5]: +47%
